Test results published in ChEMBL document CHEMBL1127908, “A congener study of zileuton reveals interesting effects on glucuronidation rates” (Bioorg Med Chem Lett, 1994).

Organism: Homo sapiens
Assay: Tested for its rate of glucuronidation in 0.5-2.5 mg/mL of human microsomal protein; Not detected
Format: functional
Conditions: not given

SMILES | Glucuronidation rate
CC(c1cc2cccnc2o1)N(O)C(N)=O (single isomer, unassigned; (-)) [listing 1 of 2 here] | Not detected

Organism: Homo sapiens
Assay: Tested for its rate of glucuronidation in 0.5-2.5 mg/mL of human microsomal protein; not detected
Format: functional
Conditions: not given

SMILES | Glucuronidation rate
CC(c1cc2cccnc2o1)N(O)C(N)=O (stereo in doubt; (+)-5b) [listing 1 of 2 here] | Not detected

Organism: Homo sapiens
Assay: Concentration required for the inhibition of LTB4 production in human whole blood
Format: functional, organism-based
Conditions: not given

IC50 [nM] | SMILES
1500 | CC(c1cc2ccncc2s1)N(O)C(N)=O (single isomer, unassigned; (+)) [listing 1 of 2 here]
3120 | CC(c1cc2ncccc2s1)N(O)C(N)=O (single isomer, unassigned; (+)) [listing 1 of 2 here]
11300 | CC(c1cc2cccnc2o1)N(O)C(N)=O (single isomer, unassigned; (-)) [listing 2 of 2 here]
3700 | CC(c1cc2cccnc2s1)N(O)C(N)=O (single isomer, unassigned; (-)) [listing 1 of 2 here]
1880 | CC(c1cc2ccccc2s1)N(O)C(N)=O (single isomer, unassigned; (-)) [ZILEUTON]
640 | CC(c1cc2ccccc2s1)N(O)C(N)=O (stereo in doubt; (+)-1b) [ZILEUTON]
950 | CC(c1cc2cccnc2s1)N(O)C(N)=O (stereo in doubt; (+)-2b) [listing 1 of 2 here]
2780 | CC(c1cc2cccnc2o1)N(O)C(N)=O (stereo in doubt; (+)-5b) [listing 2 of 2 here]
6620 | CC(c1cc2ncccc2s1)N(O)C(N)=O (stereo in doubt; (-)-4a) [listing 1 of 2 here]

Same assay, conditions: Homo sapiens, Blood

IC50 [nM] | SMILES
2000 | CC(c1cc2ccncc2s1)N(O)C(N)=O (stereo in doubt; (-)-3a) [listing 1 of 2 here]

Organism: Homo sapiens
Assay: Tested for its rate of glucuronidation in 0.5-2.5 mg/mL of human microsomal protein
Format: functional
Conditions: not given

SMILES | Glucuronidation rate (nM min-1 mg-1)
CC(c1cc2ccncc2s1)N(O)C(N)=O (single isomer, unassigned; (+)) [listing 2 of 2 here] | 0.053
CC(c1cc2ncccc2s1)N(O)C(N)=O (single isomer, unassigned; (+)) [listing 2 of 2 here] | 0.006
CC(c1cc2ccccc2s1)N(O)C(N)=O (single isomer, unassigned; (-)) | 0.155
CC(c1cc2cccnc2s1)N(O)C(N)=O (single isomer, unassigned; (-)) [listing 2 of 2 here] | 0.058
CC(c1cc2ccccc2s1)N(O)C(N)=O (stereo in doubt; (+)-1b) | 0.025
CC(c1cc2cccnc2s1)N(O)C(N)=O (stereo in doubt; (+)-2b) [listing 2 of 2 here] | 0.012
CC(c1cc2ccncc2s1)N(O)C(N)=O (stereo in doubt; (-)-3a) [listing 2 of 2 here] | 0.241
CC(c1cc2ncccc2s1)N(O)C(N)=O (stereo in doubt; (-)-4a) [listing 2 of 2 here] | 0.037
